Laboratory results taken from US20260224548A1 (priority 2022, published 2026).
Like-named read-outs stand apart in the source and are kept apart here.

Legend:
MsEH = biological target: T1, MsEH (Mus musculus, UniProt P34914); experiment: sEH inhibitory activity, PHOME fluorescence assay (MsEH); format: biochemical
T1 sequence (P34914 1-554): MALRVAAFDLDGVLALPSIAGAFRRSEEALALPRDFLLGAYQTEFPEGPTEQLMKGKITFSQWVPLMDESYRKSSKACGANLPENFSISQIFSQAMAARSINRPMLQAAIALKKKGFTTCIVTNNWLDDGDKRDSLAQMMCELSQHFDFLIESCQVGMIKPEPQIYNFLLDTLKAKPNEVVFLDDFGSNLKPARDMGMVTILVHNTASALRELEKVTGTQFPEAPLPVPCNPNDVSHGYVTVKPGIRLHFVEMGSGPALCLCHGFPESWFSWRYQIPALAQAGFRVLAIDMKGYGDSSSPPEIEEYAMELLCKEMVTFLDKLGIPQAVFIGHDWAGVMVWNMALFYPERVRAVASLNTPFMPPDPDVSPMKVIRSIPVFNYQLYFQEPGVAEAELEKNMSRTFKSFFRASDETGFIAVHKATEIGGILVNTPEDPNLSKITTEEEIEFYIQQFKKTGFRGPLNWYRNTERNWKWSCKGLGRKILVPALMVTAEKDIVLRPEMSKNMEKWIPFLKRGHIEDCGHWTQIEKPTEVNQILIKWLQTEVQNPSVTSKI
Source text: (§1) Detection principle: a specific substrate, (3-phenyl-oxy)-acetic acid cyano-(6-methoxy-naphthalen-2-yl)methyl ester, namely PHOME, is non-fluorescent but can be hydrolyzed under the action of sEH enzyme to generate a product 6-methoxy-2-naphthaldehyde. The 6-methoxy-2-naphthaldehyde can emit fluorescence with a wavelength of 465 nm under 330 nm light wave excitation, and an intensity of the detected fluorescence signal is inversely proportional to an inhibitory effect on the sEH enzyme. Based on the above principle, the inhibition rates of samples with different concentrations were calculated compared with the positive control group. The IC50 value of the compound was calculated based on the inhibition rate and concentration using SPSS 20 software.
(§2) 25 mM Tris-HCl buffer (pH=7.4, containing 0.1 mg/mL BSA): […] BAS was added to 12.5 mL of 1 M Tris-HCl buffer, followed by diluting with purified water, and a resulting mixture was adjusted to a pH value of 7.4 with hydrochloric acid, and diluted to 500 mL.
(§3) PHOME solution: 0.79 mg PHOME was dissolved in 106 μL DMSO to obtain a 20 mM PHOME solution, which was diluted to ⅓ mM with Tris-HCl buffer before use.
(§4) sEH solution: sEH (5 mg/mL) stock solution was stored in a refrigerator at −80° C. and diluted to 4 μg/mL with 25 mM Tris-HCl buffer before use.
(§5) A sample powder to be tested was dissolved in DMSO to a 20 mM solution, stored in a refrigerator at −20° C. for later use, and diluted with Tris-HCl buffer to corresponding concentrations when used.
(§6) Experimental design: solvent group, 100% activity group (A), inhibitor group (B), positive control group (C), as shown in Table 1.
(§7) Three replicate wells were set for each sample, and the average value of the three replicate wells was the fluorescence value (F) of the compound to be tested. […] The IC50 value of the compound was calculated based on the inhibition rate and concentration using SPSS 20 software.

HsEH = biological target: T2, HsEH (Homo sapiens, UniProt P34913); experiment: biochemical; format: biochemical
T2 sequence (P34913 1-555): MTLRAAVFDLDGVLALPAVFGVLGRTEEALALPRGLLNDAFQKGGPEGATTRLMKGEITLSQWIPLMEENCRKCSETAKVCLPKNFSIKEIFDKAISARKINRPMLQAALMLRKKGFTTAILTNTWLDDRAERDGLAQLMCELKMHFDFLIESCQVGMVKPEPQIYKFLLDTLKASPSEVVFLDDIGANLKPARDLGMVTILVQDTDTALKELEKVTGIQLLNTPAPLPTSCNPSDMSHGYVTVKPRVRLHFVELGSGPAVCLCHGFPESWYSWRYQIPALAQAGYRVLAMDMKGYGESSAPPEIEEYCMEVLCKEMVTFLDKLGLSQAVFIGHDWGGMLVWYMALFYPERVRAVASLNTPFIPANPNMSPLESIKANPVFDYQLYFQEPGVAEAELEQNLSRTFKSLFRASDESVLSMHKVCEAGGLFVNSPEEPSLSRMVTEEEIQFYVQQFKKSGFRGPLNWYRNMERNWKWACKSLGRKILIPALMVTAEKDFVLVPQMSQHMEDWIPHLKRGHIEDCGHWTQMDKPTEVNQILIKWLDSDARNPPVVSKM
Source text: as §1, §2, §3, §4, §5, §6, §7

[1] = PHOME substrate 50 μM, sEH 400 ng/ml, 37° C., 10 min, fluorescence 330/465 nm, read-out: HsEH IC50 (nM) Inhibitory activity against HsEH
[2] = PHOME substrate 50 μM, sEH 400 ng/ml, 37° C., 10 min, fluorescence 330/465 nm, read-out: MsEH IC50 (nM) Inhibitory activity against MsEH

Compound | IC50 (MsEH) [nM] | IC50 (HsEH; [1]) [nM] | IC50 (HsEH) [nM] | IC50 (MsEH; [2]) [nM]
CC12CC3CC(C)(C1)CC(NC(=O)Nc1ccc(CN4CCC[C@H](C(=O)NCCO)C4)cc1F)(C3)C2 [CL-114, (S)-1-(4-(3-((1r,3R,5S,7S)-3,5-dimethyladamantan-1-yl)ureido)-3-fluorobenzyl)-N-(2-hydroxyethyl) piperidine-3-carboxamide] | 0.18 | 0.63 |  | 
CC(=O)N1CCCN(C(=O)[C@H]2CCCN(C(=O)c3ccc(NC(=O)NC45CC6CC(C)(CC(C)(C6)C4)C5)c(F)c3)C2)CC1 [GL-101, 1-(4-((S)-3-(4-acetyl-1,4-diaza-1-carbonyl)piperidine-1-carbonyl)-2-fluorophenyl)-3-((1r,3R,5S,7S)-3,5-dimethyladamantan-1-yl) urea] | 0.26 |  | 0.6 | 
C=CC(=O)N1CCCN(C(=O)[C@H]2CCCN(Cc3ccc(NC(=O)NC45CC6CC(C)(CC(C)(C6)C4)C5)c(F)c3)C2)CC1 [CL-201, 1-(4-(((S)-3-(4-acryloyl-1,4-diaza-1-carbonyl)piperidin-1-yl)methyl)-2-fluorophenyl)-3-((1r,3R,5S,7S)-3,5-dimethyladamantan-1-yl) urea] | 1.1 | 0.42 |  | 
CC(=O)N1CCC(CC(=O)N2CCCN(Cc3ccc(NC(=O)NC45CC6CC(C)(CC(C)(C6)C4)C5)c(F)c3)CC2)CC1 [GL-3, 1-(4-((4-(2-(1-acetylpiperidin-4-yl)acetyl)-1,4-diaza-1-yl)methyl)-2-fluorophenyl)-3-((1r,3R,5S,7r)-3,5-dimethyladamantan-1-yl) urea] | 0.11 | 0.49 |  | 
CC12CC3CC(C)(C1)CC(NC(=O)Nc1ccc(CN4CCC[C@H](C(=O)N5CCN(CCO)CC5)C4)cc1F)(C3)C2 [CL-116, 1-((1r,3R,5S,7S)-3,5-dimethyladamantan-1-yl)-3-(2-fluoro-4-(((S)-3-(4-(2-hydroxyethyl)piperazine-1-carbonyl)piperidin-1-yl)methyl)phenyl) urea] | 0.55 | 0.98 |  | 
CCC(=O)N1CCCN(C(=O)[C@H]2CCCN(C(=O)c3ccc(NC(=O)NC45CC6CC(C)(CC(C)(C6)C4)C5)c(F)c3)C2)CC1 [GL-102, 1-((1r,3R,5S,7S)-3,5-dimethyladamantan-1-yl)-3-(2-fluoro-4-((S)-3-(4-propionyl-1,4-diaza-1-carbonyl)piperidine-1-carbonyl)phenyl) urea] | 0.58 | 0.56 |  | 
CC(O)CNC(=O)C1CCN(Cc2ccc(NC(=O)NC34CC5CC(C)(CC(C)(C5)C3)C4)c(F)c2)CC1 (centres unmarked) [CL-120, 1-(4-(3-((1r,7r)-3,5-dimethyladamantan-1-yl)ureido)-3-fluorobenzyl)-N-(2-hydroxypropyl) piperidine-4-carboxamide] | 0.47 |  | 6 | 
CC(O)CNC(=O)C1CCN(C(=O)c2ccc(NC(=O)NC34CC5CC(C)(CC(C)(C5)C3)C4)c(F)c2)CC1 [CC-115, 1-(4-(3-((1r,3R,5S,7r)-3,5-dimethyladamantan-1-yl)ureido)-3-fluorobenzoyl)-N-(2-hydroxypropyl) piperidine-4-carboxamide] | 0.18 | 4.5 |  | 
C[C@]12CC3CC(NC(=O)Nc4ccc(C(=O)NC5CCC(C(=O)N6CCN(CCO)CC6)CC5)cc4F)(C1)C[C@@](C)(C3)C2 (some centres unmarked) [ZT-117] |  | 16 |  | 0.53
CC12CC3CC(C)(C1)CC(NC(=O)Nc1ccc(C(=O)N4CCC[C@H](C(=O)NCCO)C4)cc1F)(C3)C2 [CC-120, (S)-1-(4-(3-((1r,3R,5S,7S)-3,5-dimethyladamantan-1-yl)ureido)-3-fluorobenzoyl)-N-(2-hydroxyethyl) piperidine-3-carboxamide] | 0.15 | 0.35 |  | 
C[C@]12C[C@@H]3C[C@](C)(C1)C[C@@](NC(=O)Nc1ccc(CN4CCC[C@H](C(=O)O)C4)cc1F)(C3)C2 [CL-5, (S)-1-(4-(3-((1r,3R,5S,7S)-3,5-dimethyladamantan-1-yl)ureido)-3-fluorobenzyl) piperidine-3-carboxylic acid] |  | 2.3 |  | 0.61
CCN(CC)C(=O)[C@H]1CCCN(Cc2ccc(NC(=O)NC34CC5CC(C)(CC(C)(C5)C3)C4)c(F)c2)C1 [CL-106, (S)-1-(4-(3-((1r,3R,5S,7S)-3,5-dimethyladamantan-1-yl)ureido)-3-fluorobenzyl)-N,N-diethylpiperidine-3-carboxamide] | 0.5 | 0.35 |  | 
CC(O)CNC(=O)[C@H]1CCCN(C(=O)c2ccc(NC(=O)NC34CC5C[C@@](C)(C3)C[C@](C)(C5)C4)c(F)c2)C1 (stereo partly drawn) [CC-113, (3S)-1-(4-(3-((1r,3R,5S,7S)-3,5-dimethyladamantan-1-yl)ureido)-3-fluorobenzoyl)-N-(2-hydroxypropyl) piperidine-3-carboxamide] |  | 0.28 |  | 0.23
CCC(=O)N1CCC(CC(=O)N2CCCN(Cc3ccc(NC(=O)NC45CC6CC(C)(CC(C)(C6)C4)C5)c(F)c3)CC2)CC1 [GL-1, 1-((1r,3R,5S,7r)-3,5-dimethyladamantan-1-yl)-3-(2-fluoro-4-((4-(2-(1-propionylpiperidin-4-yl)acetyl)-1,4-diaza-1-yl)methyl)phenyl) urea] | 0.07 | 0.33 |  | 
CC(O)CNC(=O)[C@H]1CC[C@H](NC(=O)c2ccc(NC(=O)NC34CC5CC(C)(CC(C)(C5)C3)C4)c(F)c2)CC1 (stereo partly drawn) [ZT-111, 4-(3-((1r,3R,5S,7r)-3,5-dimethyladamantan-1-yl)ureido)-3-fluoro-N-((1r,4R)-4-((2-hydroxypropyl)carbamoyl)cyclohexyl)benzamide] | 0.44 | 1.54 |  | 
CC12CC3CC(C)(C1)CC(NC(=O)Nc1ccc(C(=O)N4CCC(C(=O)NC(CO)CO)CC4)cc1F)(C3)C2 [CC-116, N-(1,3-dihydroxypropan-2-yl)-1-(4-(3-((1r,3R,5S, 7r)-3,5-dimethyladamantan-1-yl)ureido)-3-fluorobenzoyl) piperidine-4-carboxamide] |  | 7.1 |  | 0.55
CC12CC3CC(C)(C1)CC(NC(=O)Nc1ccc(CN4CCC[C@H](C(=O)N5CCCN(C(=O)C6CC6)CC5)C4)cc1F)(C3)C2 [CL-204] | 0.8 | 0.42 |  | 
CC12CC3CC(C)(C1)CC(NC(=O)Nc1ccc(C(=O)N4CCC[C@H](C(=O)N5CCN(CCO)CC5)C4)cc1F)(C3)C2 [CC-121, 1-((1r,3R,5S,7S)-3,5-dimethyladamantan-1-yl)-3-(2-fluoro-4-((S)-3-(4-(2-hydroxyethyl)piperazine-1-carbonyl)piperidine-1-carbonyl)phenyl) urea] | 0.15 | 0.84 |  | 
CC12CC3CC(C)(C1)CC(NC(=O)Nc1ccc(CN4CCCN(C(=O)CC5CCN(CC(O)CO)CC5)CC4)cc1F)(C3)C2 [GL-22, 1-(4-((4-(2-(1-(2,3-dihydroxypropyl)piperidin-4-yl)acetyl)-1,4-diaza-1-yl)methyl)-2-fluorophenyl)-3-((1r,3R,5S,7r)-3,5-dimethyladamantan-1-yl) urea] | 1.25 | 58.1 |  | 
